Calls of active or inactive are those of the source. The rule behind the calls is not given here.
Columns and labels:
[1] = Mutagenicity in Salmonella typhimurium TA98 assessed as increase in revertant colonies up to 10 uM in absence of S9 fraction by Ames test; format: toxicity; settings: salmonella enterica subsp. enterica serovar typhimurium
[2] = Cmax in ICR mouse liver at 80 mg/kg, po administered as single dose; format: ADME, organism-based; parameters: dose 80 mg/kg, route oral
[3] = Tmax in ICR mouse plasma at 80 mg/kg, po administered as single dose; format: ADME, organism-based
[4] = Mean residence time in ICR mouse liver at 80 mg/kg, po administered as single dose; format: ADME, organism-based
Plasmodium falciparum [5] = experiment: Inhibition of Plasmodium falciparum cytochrome b-c1
[6] = Half life in human liver microsomes at 1 uM by LC-MS analysis; format: ADME, Microsome
[7] = Apparent volume of distribution in ICR mouse liver at 80 mg/kg, po administered as single dose; format: ADME, organism-based; settings: in vivo
[8] = Apparent elimination half life in ICR mouse liver at 80 mg/kg, po administered as single dose; format: ADME, organism-based; settings: read-out: betat1/2(app) (converted)
[9] = Tmax in ICR mouse liver at 80 mg/kg, po administered as single dose; format: ADME, organism-based
[10] = AUC (0 to last) in ICR mouse plasma at 80 mg/kg, po administered as single dose; format: ADME, organism-based; parameters: dose 80 mg/kg, route oral, time 0 - last
Plasmodium falciparum [11] = experiment: Antimalarial activity against multidrug-resistant Plasmodium falciparum 7G8 infected in human erythrocytes by SYBR green 1-based fluorescence assay; format: functional, organism-based
[12] = Apparent clearance in ICR mouse plasma at 80 mg/kg, po administered as single dose; format: ADME, organism-based; settings: read-out: CL(app) (converted)
Plasmodium berghei [13] = experiment: (§1) Antimalarial activity against liver stage luciferase-expressing Plasmodium berghei ANKA 676m1cl1 sporozoites infected in C57BL/6 mouse assessed as suppression of parasitemia at 10 mg/kg, po pretreated for 1 day followed by parasite infection and subsequent compound dosing for 2 days measured at 24 to 48 hrs post-infection by luciferin-based real-time imaging analysis; format: functional
[14] = Mutagenicity in Salmonella typhimurium TA100 assessed as increase in revertant colonies up to 10 uM in absence of S9 fraction by Ames test; format: toxicity; settings: salmonella enterica subsp. enterica serovar typhimurium
[15] = AUC (0 to last) in ICR mouse liver at 80 mg/kg, po administered as single dose; format: ADME, organism-based; parameters: dose 80 mg/kg, route oral, time 0 - last
[16] = Mean residence time in ICR mouse plasma at 80 mg/kg, po administered as single dose; format: ADME, organism-based
[17] = Apparent volume of distribution in ICR mouse plasma at 80 mg/kg, po administered as single dose; format: ADME, organism-based; settings: in vivo
Plasmodium yoelii [18] = experiment: (§2) Antimalarial activity against blood stage Plasmodium yoelii MR4 MRA-428 infected in CF1 mouse assessed as suppression of parasitemia administered once daily via oral gavage for 4 days starting from 24 hrs post-infection and measured post-last dose by Giemsa-staining based microscopic analysis; format: functional
[19] = Half life in mouse liver microsomes at 1 uM by LC-MS analysis; format: ADME, Microsome
[20] = Mutagenicity in Salmonella typhimurium TA100 assessed as increase in revertant colonies up to 10 uM in presence of S9 fraction by Ames test; format: toxicity, subcellular; settings: salmonella enterica subsp. enterica serovar typhimurium
Plasmodium falciparum [21] = experiment: Antimalarial activity against drug-resistant Plasmodium falciparum Dd2 harboring M133I/A138T double mutant infected in human erythrocytes after 72 hrs by SYBR green 1-based fluorescence assay; format: functional, organism-based; settings: Dd2, 72 h
Plasmodium falciparum [22] = experiment: Antimalarial activity against atovaquone-resistant Plasmodium falciparum Tm90-C2B infected in human erythrocytes by SYBR green 1-based fluorescence assay; format: functional, organism-based
[23] = Apparent elimination half life in ICR mouse plasma at 80 mg/kg, po administered as single dose; format: ADME, organism-based; settings: for half-life: ICR, plasma, read-out: betat1/2(app) (converted)
Plasmodium falciparum [24] = experiment: Antimalarial activity against multidrug-resistant Plasmodium falciparum Dd2 infected in human erythrocytes by SYBR green 1-based fluorescence assay; format: functional, organism-based
Plasmodium falciparum [25] = experiment: Antimalarial activity against drug-resistant Plasmodium falciparum Dd2 harboring V259L mutant infected in human erythrocytes after 72 hrs by SYBR green 1-based fluorescence assay; format: functional, organism-based; settings: Dd2, 72 h
Plasmodium yoelii [26] = experiment: as §2, with “parasitemia at 80 mg/kg, po” for “parasitemia”, “via” for “via oral”, “at weekly intervals for 28 days” for “post-last dose”; format: functional
[27] = AUC (0 to infinity) in ICR mouse liver at 80 mg/kg, po administered as single dose; format: ADME, organism-based; parameters: dose 80 mg/kg, route oral, time infinity
Plasmodium falciparum [28] = experiment: Antimalarial activity against drug-resistant Plasmodium falciparum 3D7 harboring A82T/V259L double mutant infected in human erythrocytes after 72 hrs by SYBR green 1-based fluorescence assay; format: functional, organism-based; settings: 3D7, 72 h
[29] = Toxicity in CF1 mouse infected with blood stage Plasmodium yoelii MR4 MRA-428 assessed as behavioral changes at 80 mg/kg, po administered once daily via gavage for 4 days starting from for 4 days starting from 24 hrs post-infection and measured daily during compound dosing; format: organism-based; settings: in vivo
Plasmodium berghei [30] = experiment: as §1, with “blood” for “liver”, “4” for “10”, “up” for “at 24”, “30 days” for “48 hrs”, “YOYO1 staining based flow cytometry” for “luciferin-based real-time imaging analysis”; format: functional
[31] = Cmax in ICR mouse plasma at 80 mg/kg, po administered as single dose; format: ADME, organism-based; parameters: dose 80 mg/kg, route oral
hERG (KCNH2) = hERG (KCNH2) (Homo sapiens, UniProt Q12809); experiment: Inhibition of human ERG expressed in CHOK1 cells at 10 uM by automated patch clamp method relative to control; format: cell-based; settings: CHO-K1 cells that express hERG
Plasmodium berghei [32] = experiment: Antimalarial activity against luciferase-expressing Plasmodium berghei ANKA 676m1cl1 sporozoites infected in human HepG2A16 cells measured after 45 hrs by luciferase-luciferin based reporter assay; format: functional, organism-based; settings: ANKA 676m1cl1, HepG2A16, 45 h
[33] = Mutagenicity in Salmonella typhimurium TA98 assessed as increase in revertant colonies up to 10 uM in presence of S9 fraction by Ames test; format: toxicity, subcellular; settings: salmonella enterica subsp. enterica serovar typhimurium
[34] = AUC (0 to infinity) in ICR mouse plasma at 80 mg/kg, po administered as single dose; format: ADME, organism-based; parameters: dose 80 mg/kg, route oral, time infinity; settings: for AUC(0-inf): ICR, plasma
[35] = Toxicity in CF1 mouse infected with blood stage Plasmodium yoelii MR4 MRA-428 assessed as clinical toxicity at 80 mg/kg, po administered once daily via gavage for 4 days starting from for 4 days starting from 24 hrs post-infection and measured daily during compound dosing; format: organism-based; settings: in vivo
Plasmodium berghei [36] = experiment: as §1, with “blood” for “liver”, “up” for “at 24”, “30 days” for “48 hrs”, “YOYO1 staining based flow cytometry” for “luciferin-based real-time imaging analysis”; format: functional
HepG2 = experiment: Cytotoxicity against human HepG2 cells measured after 24 to 36 hrs by resazurin dye based fluorescence assay; format: cell-based
[37] = Selectivity index, ratio of IC50 for human HepG2 cells to IC50 for chloroquine-sensitive Plasmodium falciparum D6 infected in human erythrocytes; format: toxicity, cell-based; settings: read-out: Ratio IC50
Plasmodium falciparum [38] = experiment: Antimalarial activity against chloroquine-sensitive Plasmodium falciparum D6 infected in human erythrocytes by SYBR green 1-based fluorescence assay; format: functional, organism-based
Plasmodium falciparum [39] = experiment: Antimalarial activity against Plasmodium falciparum 3D7 infected in human erythrocytes after 72 hrs by SYBR green 1-based fluorescence assay; format: functional, organism-based; settings: 3D7, 72 h
Plasmodium falciparum [40] = experiment: Antimalarial activity against drug-resistant Plasmodium falciparum Dd2 harboring M133I mutant infected in human erythrocytes after 72 hrs by SYBR green 1-based fluorescence assay; format: functional, organism-based; settings: Dd2, 72 h

hERG (KCNH2), sequence (Q12809 whole entry): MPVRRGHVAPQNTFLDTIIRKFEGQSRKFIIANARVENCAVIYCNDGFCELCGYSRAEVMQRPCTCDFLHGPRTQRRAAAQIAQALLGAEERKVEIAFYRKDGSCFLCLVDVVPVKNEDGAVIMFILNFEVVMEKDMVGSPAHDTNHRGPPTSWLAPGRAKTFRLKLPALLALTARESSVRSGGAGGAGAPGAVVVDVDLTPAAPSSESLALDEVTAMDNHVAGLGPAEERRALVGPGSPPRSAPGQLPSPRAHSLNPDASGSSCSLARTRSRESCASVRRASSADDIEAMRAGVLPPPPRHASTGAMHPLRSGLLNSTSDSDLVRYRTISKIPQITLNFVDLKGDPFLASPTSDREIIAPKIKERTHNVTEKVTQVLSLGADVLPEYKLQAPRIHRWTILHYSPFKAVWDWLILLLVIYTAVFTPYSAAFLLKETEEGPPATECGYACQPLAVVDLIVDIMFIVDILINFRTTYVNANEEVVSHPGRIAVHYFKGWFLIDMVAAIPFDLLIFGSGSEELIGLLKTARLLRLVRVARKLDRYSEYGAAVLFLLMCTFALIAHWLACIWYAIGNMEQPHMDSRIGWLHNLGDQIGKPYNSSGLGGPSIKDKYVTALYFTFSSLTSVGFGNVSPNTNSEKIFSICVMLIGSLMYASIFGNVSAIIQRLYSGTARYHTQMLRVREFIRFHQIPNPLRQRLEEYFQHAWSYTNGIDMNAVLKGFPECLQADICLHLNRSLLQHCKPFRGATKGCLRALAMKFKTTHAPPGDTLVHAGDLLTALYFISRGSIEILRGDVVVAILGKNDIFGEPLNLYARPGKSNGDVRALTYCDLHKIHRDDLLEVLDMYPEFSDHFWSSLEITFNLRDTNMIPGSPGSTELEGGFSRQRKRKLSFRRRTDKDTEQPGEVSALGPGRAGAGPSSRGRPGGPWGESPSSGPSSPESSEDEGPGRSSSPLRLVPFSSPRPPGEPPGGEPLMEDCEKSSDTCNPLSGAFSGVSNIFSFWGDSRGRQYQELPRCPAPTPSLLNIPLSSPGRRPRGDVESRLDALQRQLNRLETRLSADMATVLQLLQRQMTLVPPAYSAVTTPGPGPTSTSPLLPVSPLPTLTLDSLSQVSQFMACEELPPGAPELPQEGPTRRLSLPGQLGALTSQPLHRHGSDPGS

Row | Structure (SMILES) | Activity [1] | Cmax [2] [ng/mL] | MRT [4] [h] | inhibition (Plasmodium falciparum [5]) | half-life at 1 µM [6] [h] | half-life [8] [h] | Tmax [9] [h] | AUC(0-t) [10] [ng·h/mL] | IC50 (Plasmodium falciparum [11]) [nM] | Activity (Plasmodium berghei [13]) [%] | Activity [14] | AUC(0-t) [15] [ng·h/mL] | MRT [16] [h] | Vz [17] [L/kg] | ED50 (Plasmodium yoelii [18]) [mg/kg.day] | half-life at 1 µM [19] [h] | IC50 (Plasmodium falciparum [21]) [nM] | IC50 (Plasmodium falciparum [24]) [nM] | IC50 (Plasmodium falciparum [25]) [nM] | IC50 (Plasmodium falciparum [28]) [nM] | other results
1 | CCCCN(CCCC)CCOc1ccc2c(=O)c3c(Cl)c(Cl)ccc3[nH]c2c1 | Non-Toxic | 21300 | 10.1 | inactive | 0.2 | 4.63 | 2.75 | 3050 | 0.043 | 100 | Non-Toxic | 168000 | 6.96 | 223.865 | 1.03 | 0.35 | 38 | 0.041 to 14 | 140 | 57 | Tmax ([3]; ICR, plasma, read-out: Tmax): 2.75 h; Vz [7]: 3.605 L/kg; CL/F [12]: 431 mL/min/kg; ED90 (Plasmodium yoelii [18]): 1.64 mg/kg.day; Activity [20]: Non-Toxic; IC50 (Plasmodium falciparum [22]): 228 nM; half-life [23]: 6 h; Activity (Plasmodium yoelii [26]): 100%; AUC(0-inf) [27]: 169000 ng·h/mL; Activity [29]: Non-Toxic; Activity (Plasmodium berghei [30]): 100%; Cmax ([31]; ICR, plasma, read-out: Cmax): 226 ng/mL; inhibition at 10 µM (hERG (KCNH2)): 57%; IC50 (Plasmodium berghei [32]): 0.5 nM; Activity [33]: Non-Toxic; AUC(0-inf) [34]: 3240 ng·h/mL; Activity [35]: Non-Toxic; Activity (Plasmodium berghei [36]): 100%
2 | CCCN(CCC)CCOc1ccc2c(=O)c3c(Cl)c(Cl)ccc3[nH]c2c1 | Non-Toxic | 42300 | 6.07 | inactive | 0.183 | 1.84 | 7 | 3840 | 0.3 | 100 | Non-Toxic | 547000 | 4.69 | 58.684 | 1.04 | 0.283 | 50 | 0.05 to 9 | 216 | 79 | Tmax ([3]; ICR, plasma, read-out: Tmax): 5.5 h; CL/F [12]: 295 mL/min/kg; ED90 (Plasmodium yoelii [18]): 1.14 mg/kg.day; IC50 (HepG2): 41600 nM; Activity [20]: Non-Toxic; IC50 (Plasmodium falciparum [22]): 142 nM; half-life [23]: 2.29 h; selectivity ratio [37]: 245000; IC50 (Plasmodium falciparum [38]): 0.17 nM; Activity (Plasmodium yoelii [26]): 100%; AUC(0-inf) [27]: 547000 ng·h/mL; Activity [29]: Non-Toxic; Cmax ([31]; ICR, plasma, read-out: Cmax): 631 ng/mL; inhibition at 10 µM (hERG (KCNH2)): 25%; IC50 (Plasmodium berghei [32]): 1.1 nM; Activity [33]: Non-Toxic; AUC(0-inf) [34]: 4520 ng·h/mL; Activity [35]: Non-Toxic; Activity (Plasmodium berghei [36]): 100%
3 | CCCCN(CCCC)CC(O)c1cc(Cl)cc2c1-c1ccc(Cl)cc1/C2=C/c1ccc(Cl)cc1 (configuration not stated) [LUMEFANTRINE] | – | – | – | inactive | – | – | – | – | – | – | – | – | – | – | – | – | 3.6 | 5.7 | 6.5 | 4.5 | IC50 (Plasmodium falciparum [39]): 3 nM; IC50 (Plasmodium falciparum [40]): 3.6 nM
4 | CCCN(CCC)CCOc1ccc2c(=O)c3c(F)cc(F)cc3[nH]c2c1 | Non-Toxic | 3930 | 8.9 | inactive | 0.267 | 13.8 | 7 | 7560 | 0.0003 | 100 | Non-Toxic | 63900 | 10.2 | 657.604 | 1.12 | 0.25 | 0.86 | 0.0003 to 0.23 | 5.5 | 17 | IC50 (Plasmodium falciparum [39]): 0.3 nM; Tmax ([3]; in vivo): 7 h; IC50 (HepG2): 42800 nM; Activity [20]: Non-Toxic; IC50 (Plasmodium falciparum [22]): 6.8 nM; betat1/2(app) ([23]; in vivo): 54.24 h; selectivity ratio [37]: > 100000; IC50 (Plasmodium falciparum [38]): 0.0003 nM; Activity (Plasmodium yoelii [26]): 100%; AUC(0-inf) [27]: 102000 ng·h/mL; Activity [29]: Non-Toxic; Cmax ([31]; in vivo): 99 ng/mL; inhibition at 10 µM (hERG (KCNH2)): 65%; IC50 (Plasmodium berghei [32]): 1.4 nM; Activity [33]: Non-Toxic; AUC ([34]; in vivo): 56485 ng·h/mL; Activity [35]: Non-Toxic; Activity (Plasmodium berghei [36]): 100%

From ChEMBL document CHEMBL4390668, “Discovery and Structural Optimization of Acridones as Broad-Spectrum Antimalarials” (J Med Chem, 2019)
